The numbers were not newly measured in patent US20250186525A1, “DECAFFEINATED YERBA MATE EXTRACT, ANTI-OBESITY COMPOSITION, DECAFFEINATION METHOD AND METHOD FOR THE PRODUCTION OF A YERBA MATE EXTRACT” (priority 2022, published 2025), which cites them from elsewhere.

One data set relates to mice. The note with it: isolated from a hot water extract of yerba mate.
Another data set concerns fat accumulation. The settings on record: cell and animal tests.

Each structure is given as a SMILES string.

On to `O=C(/C=C/c1ccc(O)c(O)c1)O[C@@H]1CC(O)(C(=O)O)C[C@@H](OC(=O)/C=C/c2ccc(O)c(O)c2)C1O` (stereo partly shown) [3,5-dicaffeoylquinic acid], for which the food intake result in the data set on mice is given as “significantly reduces”.

On to `O=C(/C=C/c1ccc(O)c(O)c1)O[C@@H]1C[C@](O)(C(=O)O)C[C@@H](O)[C@H]1O` [chlorogenic acid], for which the food intake result in the data set with mice is on record as “significantly reduces”.

Regarding `Cn1c(=O)c2c(ncn2C)n(C)c1=O` [caffeine], the “inhibitory effect on fat accumulation” value in the data set with fat accumulation was “showed an inhibitory effect”. In addition, in the data set on fatty acid synthase, the “gene expression of fatty acid synthase” value was “reduced”.
